In patent US20130130241A1, “ANDROGEN RECEPTOR ISOFORMS AND METHODS” (Regents of the University of Minnesota, priority 2010, published 2013):

Assays:
[1] = tested on: patients with ADI prostate cancer; settings: Phase II trial; Scher et al., 2010; cited from earlier work
[2] = tested on: LNCaP cells expressing truncated AR isoforms; settings: Watson et al., 2010; cited from earlier work
androgen receptor = experiment: AR knock-down by siRNA in 22Rv1 cells, Western blot; assay type: cell-based, human; settings: for expression of androgen receptor isoforms (Western blot): FIG. 3B
Method: FIG. 3. A) Schematic of androgen receptor mRNA isoforms expressed in 22Rv1 cells. DBD*, Exon 3-duplicated AR. B) 22Rv1 cells were electroporated with siRNAs targeted to Exons […]. androgen receptor and ERK-2 levels were determined. C) Rabbit antisera were raised against an Exon 2b-derived peptide. Equal amounts of 22Rv1 lysates were immunoprecipitated with crude antisera, or antibody purified on an immobilized Exon2b-peptide column, non-specific rabbit IgG, or a rabbit polyclonal antibody specific for the androgen receptor NTD. Western blots were performed with a mouse monoclonal antibody specific for the androgen receptor NTD.
We have investigated mechanisms of prostate cancer therapy resistance in cell- and xenograft-based models of prostate cancer progression with a focus on ligand-independent androgen receptor activation (Dehm and Tindall, 2006 J Biol Chem 281:27882-93; Dehm and Tindall, 2007 Mol Endocrinol 21:2855-63). One model of interest is the ADI 22Rv1 prostate cancer cell line, which was derived from an androgen-dependent CWR22 prostate cancer xenograft that relapsed during androgen depletion (Sramkoski et al., 1999 In Vitro Cell Dev Biol Anim 35:403-9). […] The Exon 1 and Exon 7 targeted siRNAs were purchased from Dharmacon, Inc. (Lafayette, Colo.). The sequences are as follows:
Truncated androgen receptor from 22Rv1 cells appears as a doublet in Western blot experiments (FIG. 3B). Because 3′ RACE experiments identified AR 1/2/2b and AR 1/2/3/2b as alternatively spliced androgen receptor isoforms in this cell line, we pursued the hypothesis that these two discrete bands represented AR 1/2/2b and AR 1/2/3/2b (Dehm et al., 2008 Cancer Res 68:5469-77). […] To this end, we tested siRNAs targeted to AR Exon 1, AR Exon 3, or AR Exon 7 (FIG. 3A).
Western blotting of CWR22Pc and 22Rv1 lysates with AR (Santa Cruz N-20), ERK-2 (Santa Cruz D-2), and ARV-7 (Precision Antibody #AG10008) antibodies was performed exactly as described (Dehm et al., 2008 Cancer Res 68:5469-77).

22Rv1 cells = settings: Dehm et al., 2008; cited from earlier work
[3] = tested on: androgen receptor target genes; settings: 22Rv1 cells; Dehm et al., 2008; cited from earlier work

## CNC(=O)c1ccc(N2C(=S)N(c3ccc(C#N)c(C(F)(F)F)c3)C(=O)C2(C)C)cc1F [MDV3100]
[1]
  share of CRPCa patients with robust decrease in serum PSA levels (at least 50%), stabilized bone disease, conversion of CTC counts to favorable: one-half
[2]
  androgen-independent growth of LNCaP cells expressing truncated AR isoforms: inhibit

## AR Exon 1-targeted siRNA: Dharmacon siRNA duplex targeted to AR Exon 1; sense SEQ ID NO: 1, antisense SEQ ID NO: 2 (sense CAAGGGAGGUUACACCAAAUU; antisense UUUGGUGUAACCUCCCUUGUU; listed as RNA, chemistry not given here)
Androgen receptor
  expression of a ~80 kDa androgen receptor protein species: knocked-down
  expression of androgen receptor isoforms (Western blot): knocked down expression of all androgen receptor isoforms
22Rv1 cells
  androgen-independent proliferation of 22Rv1 cells: inhibited
[3]
  androgen-independent expression of androgen receptor target genes: inhibited

## AR Exon 7-targeted siRNA: Dharmacon siRNA duplex targeted to AR Exon 7; sense SEQ ID NO: 3, antisense SEQ ID NO: 4 (sense GGAACUCGAUCGUAUCAUUUU; antisense AAUGAUACGAUCGAGUUCCUU; listed as RNA, chemistry not given here)
Androgen receptor
  expression of androgen receptor isoforms (Western blot): selectively knocked down expression of full-length androgen receptor
22Rv1 cells
  androgen-independent proliferation of 22Rv1 cells: not
[3]
  androgen-independent expression of androgen receptor target genes: not
